In patent publication US9132130B2, “Purine derivative and antitumor agent using same” (ZENYAKU KOGYO KABUSHIKI KAISHA, priority 2009, dated 2015):

What was measured:
human colon cancer WiDr = assay: in vivo antitumor activity, nude mice transplanted with human colon cancer WiDr; parameters: species or system BALB/c-nu/nu mice; conditions: 400 mg/kg orally daily day 0 to day 13 (12 times), tumor volume at day 14
Experimental: (§1) Tumor tissue fragments of human colon cancer WiDr (3 mm×3 mm×3 mm) were transplanted subcutaneously into the chests of six-week-old female BALB/c-nu/nu mice, and sample administration started when the tumor volume reached at least approximately 100 mm^3 (day 0). Compound 2 was suspended in a 1% HPC (L) solution using an agate mortar. 400 mg/kg of Compound 2 was orally administered daily from day 0 to day 13 (excluding day 3 and day 10, a total of 12 times). Tumor diameters were measured to calculate tumor volume (½×long diameter×short diameter×short diameter), and the tumor volume after 14 days (at day 14) from the start of sample administration was divided by the tumor volume at the start of the administration to calculate relative tumor growth rate. The percentage of the relative tumor growth rate of the control group with respect to the relative tumor growth rate of the group administered with Compound 2 was taken as T/C (%).

[1] = system: B16F10 cells (mouse melanoma [malignant melanoma] cells); assay: in vitro antitumor activity test, B16F10 cells, XTT colorimetry; assay type: cell-based; conditions: B16-F10, cultured 72 hours
Procedure, shortened: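 B16F10 mouse melanoma cells were seeded from a 1×10^4 cells/ml suspension and allowed to adhere for 24 h. Compounds in DMSO were diluted in RPMI 1640 with 10% FBS to 2.0×10^−9 to 2.0×10^−4 M and incubated 72 h at 37° C, 5% CO2. XTT colorimetry gave GI50 (μM).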

[2] = system: WiDr cells (human colon cancer cells); assay: in vitro antitumor activity test, WiDr cells, XTT colorimetry; assay type: cell-based; conditions: cultured 72 hours
Procedure, shortened: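 Human colon cancer cells in MEM/10% FBS were seeded 3×10^4 cells/ml and allowed to adhere for 24 h, then exposed to compounds prepared at 2.0×10^−9 to 2.0×10^−4 M in RPMI 1640 for 72 h at 37° C, 5% CO2. Growth was read by XTT colorimetry and GI50 (μM) calculated.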

[3] = system: P388 cells (mouse leukemia cells); assay: in vitro antitumor activity test, P388 cells, XTT colorimetry; assay type: cell-based; conditions: cultured 72 hours
Procedure, shortened: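 Cells from DBA/2 mouse ascites, in RPMI 1640 with 10% FBS and 25 mM HEPES, seeded from a 4×10^4 cells/ml suspension. Equal volume added of compound solutions prepared at 2.0×10^−9 to 2.0×10^−4 M (pre-mixing). After 72 h at 37° C, 5% CO2, growth read by XTT; GI50 (μM) is the concentration giving 50% growth inhibition.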

[4] = system: PC-3 cells (human prostate cancer cells); assay: in vitro antitumor activity test, PC-3 cells, XTT colorimetry; assay type: cell-based; conditions: PC-3 human prostate cancer cells, cultured 72 hours
Procedure, shortened: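 PC-3 human prostate cancer cells, seeded at 2×10^4 cells/ml and allowed to adhere for 24 h, were exposed 72 h at 37° C, 5% CO2 to compound diluted in RPMI 1640 with 10% FBS to 2.0×10^−9 to 2.0×10^−4 M (pre-addition solutions). Growth was measured by XTT colorimetry and GI50 (μM) calculated.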

[5] = system: MCF-7 cells (human breast cancer cells); assay: antitumor activity against breast cancer cells, cell counting; assay type: cell-based; conditions: MCF7; MCF-7 human breast cancer cells, cultured 72 hours, cell counter
Experimental: MCF-7 cells (human breast cancer cells) subcultured in a culture medium composed of a MEM medium added with 10% fetal bovine serum, 25 mM HEPES and 0.1 mg/ml kanamycin under the conditions of 37° C. and 5% carbon dioxide gas were made into single floating cells by treating with trypsin/EDTA, and a single cell suspension of 4×10^4 cells per 1 ml was prepared using the MEM medium (added with 10% fetal bovine serum, 25 mM HEPES and 0.1 mg/ml kanamycin). After dissolving the test substances (Compound 2 and Compound 7) in DMSO, they were diluted with the MEM medium (added with 10% fetal bovine serum, 25 mM HEPES and 0.1 mg/ml kanamycin) and prepared so that the concentrations were 6.4×10^−8 to 2.0×10^−5 M.
0.1 ml of the cell suspension was placed into each well of a 96-well microplate, cultured for 24 hours to allow the cells to adhere to the microplate, then 0.1 ml of the sample solutions were added, and cultured for 72 hours at 37° C. in 5% carbon dioxide gas.
Afterwards, the cells in each well were made single floating cells by treating with trypsin/EDTA, and the number of cells was counted using a cell counter to obtain the growth inhibition rate at various sample concentrations and calculate the concentrations at which growth was inhibited by 50% (GI50 values [μM]).

[6] = system: A549 cells (human lung cancer cells); assay: in vitro antitumor activity test, A549 cells, XTT colorimetry; assay type: cell-based; conditions: cultured 72 hours
Procedure, shortened: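 Cells seeded at 2×10^4 cells/ml in MEM + 10% FBS, 25 mM HEPES, kanamycin, allowed to adhere 24 h, then exposed to compounds (DMSO stocks diluted in RPMI 1640; prepared at 2.0×10^−9 to 2.0×10^−4 M) for 72 h at 37 °C, 5% CO2. Growth inhibition read by XTT colorimetry; GI50 (μM) calculated.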

human lung cancer A549 = assay: in vivo antitumor activity, nude mice transplanted with human lung cancer A549; parameters: species or system BALB/c-nu/nu mice; conditions: 400 mg/kg orally daily day 0 to day 13 (12 times), tumor volume at day 14
Experimental: as §1, with “of human lung cancer A549” for “of human colon cancer WiDr”, “lung cancer A549 (3 mm×3” for “colon cancer WiDr (3 mm×3”, “Compound 2 and Compound 7 were suspended in” for “Compound 2 was suspended in”, “a 1% hydroxypropylcellulose (HPC [L]) solution using” for “a 1% HPC (L) solution using”, “day 10, a total of 12 times). 400 mg/kg of Compound 7 was intraperitoneally administered daily from day 0 to day 13 (excluding day 4 and day 11, a total” for “day 10, a total”, “Compound 2 or Compound 7 was taken” for “Compound 2 was taken”

[7] = system: human prostate cancer PC-3; assay: in vivo antitumor activity, nude mice transplanted with human prostate cancer PC-3; parameters: species or system BALB/c-nu/nu mice; conditions: PC-3 in nude mice, 400 mg/kg orally daily day 0 to day 13 (12 times), tumor volume at day 14
Experimental: as §1, with “prostate” for “colon”, “PC-3” for “WiDr”

**Q.** For CCc1nc2c(N3CCOCC3)nc(SCc3ccc(OC)c(N)c3)nc2n1C [Compound 2, 2-(3-amino-4-methoxybenzylsulfanyl)-8-ethyl-9-methyl-6-morpholino-9H-purine], which T/C (human colon cancer WiDr) is on record?
**A.** The T/C was 62.1%.

**Q.** And the GI50 [1]?
**A.** Its GI50 is 300 nM.

**Q.** And the GI50 [2]?
**A.** The GI50 was 300 nM.

**Q.** And the GI50 [3]?
**A.** The GI50 was 110 nM.

**Q.** What about the GI50 [4] of the same compound?
**A.** The GI50 was 100 nM.

**Q.** What about the GI50 [5] of the same compound?
**A.** The GI50 was 110 nM.

**Q.** What about the melting point of the same compound?
**A.** Its melting point is 139 °C.

**Q.** And the GI50 [6]?
**A.** Its GI50 is 140 nM.

**Q.** What about the T/C (human lung cancer A549) of the same compound?
**A.** The T/C was 73.1%.

**Q.** And the T/C [7]?
**A.** The T/C was 32.2%.
